# Results from patent publication US9491962B2, “Use of chicoric acid and derivatives for regulating skin pigmentation” (Nestec S.A., priority 2010, dated 2016).
# Experiments:
# [1] = tested on: B16 murine melanocytes; test: Production of melanin by B16 murine melanocyte cell line; type: cell-based; details: for melanin production (result in words): B16 melanocytes, 72 hours, Kojic acid at 400 μg/mL
# Experimental: In order to evaluate the potential beneficial effect of ingredients towards skin de- or pro-pigmentation we used 2D culture of murine melanocytes (B16) and we performed 2 tests: 1-assessment of melanin production and 2-assessment of tyrosinase production. B16 cells were cultured in DMEM 1 g/L glucose without phenol red supplemented with 10% foetal calf serum, in a humidified chamber at 37° C. and containing 5% CO2. Cells were incubated with the selected ingredients or the test references (Kojic acid at 400 μg/mL) for 72 hours, in the presence or absence of NDP-MSH an analog of MSH. The total quantity of melanin (extracellular and intracellular) was evaluated by measurement of the optical density at 405 nm of each sample against melanin standards in presence or in absence of NDP-MSH.
# [2] = tested on: HDF; test: Highest non cytotoxic concentration on HDF; type: cell-based; details: mM
# Source text: (§1) We have tested two chicory extracts MS-55 (concentré MS-55 LEROUX) and MS-70 (pâte MS-70 LEROUX) and Chicoric acid.
# [3] = tested on: HPEK; test: Highest non cytotoxic concentration on HPEK; type: cell-based, human; details: mM
# Experimental: as §1
# The potential beneficial effect of the Extracts of Example 1 towards skin barrier function and skin hydration was evaluated by using 2D culture of human primary epidermal keratinocytes and we assessed the synthesis of filaggrin
# [4] = tested on: filaggrin; test: Synthesis of filaggrin by human epidermal keratinocytes (immunolabeling); type: cell-based; details: human primary epidermal keratinocytes, 144 hours
# Experimental: The potential beneficial effect of the Extracts of Example 1 towards skin barrier function and skin hydration was evaluated by using 2D culture of human primary epidermal keratinocytes and we assessed the synthesis of filaggrin Human epidermal keratinocytes were cultured in control keratinocytes-SFM medium, in a humidified chamber at 37° C. and containing 5% CO2. Cells were incubated with the selected ingredients or the test references (CaCl2 at 1.5 mM) for 144 hours. The production of filaggrin by was evaluated by immunolabeling.
SMILES,melanin production (result in words) [1],"decrease of melanin production ([1]; B16 melanocytes treated for 72 hours, percentage relative to the control) [%]",Highest non cytotoxic conc. on HDF [2] [mM],Highest non cytotoxic conc. on HPEK [3] [mM],filaggrin synthesis (result in words) [4]
"O=c1cc(CO)occ1O [Kojic acid, reference compound]",decrease in melanin production,–,–,–,–
O=C(/C=C/c1ccc(O)c(O)c1)O[C@@H](C(=O)O)[C@@H](OC(=O)/C=C/c1ccc(O)c(O)c1)C(=O)O [Chicoric acid],decrease in vitro the synthesis of melanin,90,0.2,0.2,increase of filaggrin
